# Results reported in US20180221241A1, “ENHANCEMENT OF VASODILATORY FUNCTION AND LOWERING OF EFFECTIVE SYSTEMIC VASCULAR RESISTANCE” (THE GOVERNORS OF THE UNIVERSITY OF ALBERTA, priority 2015, published 2018).
# System: second order mesenteric resistance arteries
# Assay: Pressure myograph system, vessel lumen diameter under controlled barometric pressure
# Set-up: species or system mice
# Conditions: for constriction or relaxation of vessel to drug administered in the bath: vessels immersed in Ca2+-free solution, n=7, p>0.05; for maximal increase in lumen diameter, cumulative response curve to methylcholine: doses 1 nM to 1 μM, barometric pressure PB674
# Method: Four-month-old male C57 mice were given access to standard chow and water ad-libitum and were housed on a 12 h-12 h light-dark cycle. Mice were euthanized through sodium pentobarbital administered interperitonially, and their mesenteries were removed and placed in freshly prepared cold physiological salt solution (10 HEPES, 5.5 glucose, 1.56 CaCl2, 4.7 KCl, 142 NaCl, 1.17 MgSO4, 1.18 KH2PO4, pH 7.5.).
# Two second order resistance arteries were dissected of surrounding connective tissue and mounted within a pressure myograph system (Living Systems Instrumentation; Burlington, Vt.). Vessels were tied onto glass cannulas with microscopic suture thread segments. Each vessel was immersed in a physiological salt solution bath, maintained at a temperature of 37° C. with the aid of a built-in temperature feedback mechanism connected to a miniature heating system. Intravascular pressure and flow were measured and alterable using pressure and flow control systems. A peristaltic pump was used to maintain specific rates of flow across the lumens vessels mounted in the pressure myograph system. To mimic physiological conditions as best as possible, the vessels were oriented as such that flow would be applied in the same direction as in vivo blood flow. The vessels were maintained at a perfusion pressure of 60 mmHg, the approximated in vivo mesentery arterial pressure of mice.
# Vessels were exposed to phenylephrine and methylcholine before the start of every protocol to ensure the vessel was intact and capable of responding to pressure and flow stimuli. In some protocols, one bath of the pressure myograph was infused with inhibitors of nitric oxide synthase and prostacyclins to inhibit the action of these two major endogenous endothelial vasodilators. This was performed in order to assess the effect of barometric pressure on mesenteric arteries isolated from the vasoactive influences of nitric oxide and prostacyclins.
# The entire myograph system was enclosed within a barometric pressure controlled chamber, capable of being sealed and pressure-controlled when necessary (FIG. 11). A control pressure was established on the pressure sensor in relation to the atmospheric pressure denoted by the meteorological service of Canada (Edmonton station). Pressure conditions PB714 and PB674 were assigned as 40 mmHg and 80 mmHg below atmospheric pressure, respectively. The conditions were maintained through a pressure apparatus.
# A pressure transducer and flow regulator coupled with a peristaltic pump mechanisms was set up so as to be manipulated from outside upon sealing the barometric pressure chamber around the myograph system. […]
# Vessel diameters and wall thicknesses were recorded with the help of a microscope-coupled micrometer. […]
smiles,measurement,setting,value
CNC[C@H](O)c1cccc(O)c1 [phenylephrine],constriction or relaxation of vessel to drug administered in the bath,,no constriction
CC(=O)OC(C)C[N+](C)(C)C (stereo not shown),"maximal increase in lumen diameter, cumulative response curve to methylcholine",with L-NAME and meclofenamate (FIG. 4B),133%
same,"maximal increase in lumen diameter, cumulative response curve to methylcholine",without inhibitors (FIG. 4A),122%
same,constriction or relaxation of vessel to drug administered in the bath,,no constriction to phenylephrine or relaxation
